According to patent publication US12686704B2, “Procoagulant peptides and use thereof” (RAMBAM MED-TECH LTD., priority 2021, dated 2026):

Columns and labels:
[1] = test system: citrated pooled normal human blood; experiment: Thromboelastography (TEG) of citrated pooled normal human blood; conditions: for Angle / K / MA (maximal amplitude) / R (time to clot formation) / SP / thrombus strength (maximal amplitude, MA), in words / time to clot formation (R), in words: 5 μg/ml with calcium; for Angle / K / MA (maximal amplitude) / R (time to clot formation) / SP: blood left 4 hours at room temperature, representative TEG curve FIG. 1B; for thrombus strength (maximal amplitude, MA), in words / time to clot formation (R), in words: vs control
Procedure: (§1) FIGS. 1A-1C include vertical bar graphs and thromboelastography (TEG) curves, showing that peptide 16 and peptide 16AC increase coagulation. Peptide 16 and 16AC were studied in an assay of purified proteins that included lipidated TF (4 nM), factor VIIa (40 nM), factor X (1.4 μM) and assay buffer. Factor X activated form (Xa) level was studied using a chromogenic substrate (1 mM). […] Bovine factor Xa diluted in the assay buffer was used to generate a standard curve. Without addition of TF (two right columns), no factor Xa was generated. […] (1B) A citrated pooled normal human blood sample (n=3) was left for 4 hours at room temperature in order to expose TF in bloods cells. Following this period, the peptides 16 and 16AC were added (5 μg/ml) along with calcium. […] Representative TEG curves are shown. (1C) The study presented in FIG. 1B was repeated 3 times with different pooled plasma. […] Peptide 16 (non-modified); peptide 16 comprising a C-terminal amid group (16A); peptide 16 comprising an N-terminal acetyl group (16C); and peptide 16 comprising a C-terminal amid group and an N-terminal acetyl group (16AC). In 1B: for control—SP min=11.2; R min=12.8; K min=3.8, Angle deg=52.0; and MA mm=47.9, for Peptide 16—SP min=5.2; R min=6.4; K min=2.8, Angle deg=63.3; and MA mm=50.4, and for Peptide 16AC—SP min=4.7; R min=5.6; K min=2.5, Angle deg=63.1; and MA mm=53.8.
A citrated pooled normal human blood sample (n=3) was left for 4 hours at room temperature in order to expose TF in bloods cells. Following this period, the peptides 16 and 16AC were added (5 μg/ml) along with calcium. […] Representative images are shown (FIG. 1B). The study from B section was repeated 3 times with different pooled blood.

[2] = test system: Hemophilic mice (VIII-KO mice); experiment: Mouse-tail bleeding time model in hemophilic mice; type: in vivo; conditions: for bleeding time: 150, 225, 300, 375 μg/kg sub-cutis at the flank or topically on the tail, dose dependent, vs PBS control
Procedure: FIGS. 3A-3D include vertical bar graphs showing that modified heparanase procoagulant peptides of the invention decrease bleeding in hemophilic mice. Hemophilic mice (VIII-KO mice; C57BL/6 background, strain name B6;129S4-F8tm1Kaz/J) were studied. (3A) Peptides 16 or 16AC were injected subcutaneously at the flank in doses 150, 225, 300, 375 μg/kg. A mouse-tail bleeding time model was performed. The peptides were dissolved in phosphate-buffered saline (PBS). Control (0) group was injected with the vehicle phosphate buffered saline (PBS). (3D) is identical to (3A) with the exception that peptide 16 C […] and peptide 16A […] were also administered in the disclosed doses. In a similar study, the peptides were topically applied on the tail immediately following the incision of the tail at a rate of a drop every 5 seconds (3B). […] Mann-Whitney U test was used. Results represent mean±SD. *p<0.05.
Hemophilic mice (VIII-KO mice; C57BL/6 background, strain name B6;129S4-F8tm1Kaz/J) were studied. Peptides 16 or 16AC were injected sub-cutis at the flank in doses 150, 225, 300, 375 μg/kg. A mouse-tail bleeding time model was performed. The peptides were dissolved in phosphate-buffered saline (PBS). Control (0) group was injected with the vehicle phosphate buffered saline (PBS) (FIGS. 3A and 3D). In a similar study, the peptides were topically applied on the tail immediately following the incision of the tail at a rate of a drop every 5 seconds (FIG. 3B).

[3] = biological target: lipidated TF, factor VIIa, factor X (Homo sapiens, UniProt P13726); experiment: Factor X activation assay of purified proteins (chromogenic substrate); type: biochemical; conditions: peptides at 5 μg/ml and 10 μg/ml; compared to control; FIG. 1A
Procedure: as §1
Peptides 16, 16C, 16A and 16AC were studied in an assay of purified proteins that included lipidated TF (0.004 μM), factor VIIa (0.04 μM), factor X (1.4 μM) and assay buffer. Factor X activated form (Xa) level was studied using a chromogenic substrate (1 mM). […] Bovine factor Xa diluted in the assay buffer was used to generate a standard curve. Without addition of TF (two right columns), no factor Xa was generated.

rat = experiment: Rat models of uncontrolled hemorrhage (spleen transection, liver laceration); type: in vivo; conditions: for bleeding (blood loss): 150 μg/kg subcutaneous half an hour before surgery, I.V. 2 minutes following trauma, or topical, FIGS. 2A-2F; for bleeding (blood loss) / bleeding time: vs PBS control; for bleeding time: FIG. 2G
Procedure: FIGS. 2A-2I include vertical bar graphs showing the effect of modified heparanase procoagulant peptides of the invention using different rat bleeding models. Two rat models of uncontrolled hemorrhage were applied. The models include spleen transection (2A) and liver laceration (2B). Blood loss was recorded every 2 minutes for the first 10 minutes after injury and at 5-minutes intervals thereafter for a total of 30 minutes. Shed blood were collected by placing reweighed gauze below the organ targeted for injury. The gauze was changed and weighed at the blood-loss intervals. Peptides 16 and 16AC were injected subcutaneously (150 μg/kg) half an hour before surgery (2A-2B) or intravenously (I.V.) in the saphenous vein (150 μg/kg) 2 minutes following the trauma (2C, 2D, 2H, and 2I). The third route of administration was topical application (150 μg/kg) on the incision site (2E-2F). The peptides were dissolved in phosphate-buffered saline (PBS) and added at a rate of a drop every 5 seconds. Control group (‘C’) was administered (either subcutaneously, intravenously, or topically) with the vehicle phosphate buffered saline (PBS). […] Mann-Whitney U test was used. Results represent mean±SD. *p<0.01, **p<0.001. In addition to Peptide 16 and Peptide 16AC, Peptide 16C, and Peptide 16A were also analyzed and compared in (2H and 2I).
Two rat models of uncontrolled hemorrhage were applied as previously described (Morgan et al., 2015; JAMA Surg.). The models included spleen transection (FIG. 2A) and liver laceration (FIG. 2B). Briefly, blood loss was recorded every 2 minutes for the first 10 minutes after injury and at 5-minute intervals thereafter for a total of 30 minutes. Shed blood were collected by placing reweighed gauze below the organ targeted for injury. The gauze was changed and weighed at the blood-loss intervals. Peptides 16 and 16AC were injected subcutaneous (150 μg/kg) half an hour before surgery (FIGS. 2A-2B) or intra-venous (I.V.) in the saphenous vein (150 μg/kg) 2 minutes following the trauma (FIGS. 2C-2D). The third route of administration was topical application (150 μg/kg) on the incision site (FIGS. 2E-2F). The peptides, dissolved in phosphate-buffered saline (PBS), were added at a rate of a drop every 5 seconds. Control (C) group was injected or topical applied with the vehicle phosphate buffered saline (PBS).

Chain of lipidated TF, factor VIIa, factor X (P13726 33-295): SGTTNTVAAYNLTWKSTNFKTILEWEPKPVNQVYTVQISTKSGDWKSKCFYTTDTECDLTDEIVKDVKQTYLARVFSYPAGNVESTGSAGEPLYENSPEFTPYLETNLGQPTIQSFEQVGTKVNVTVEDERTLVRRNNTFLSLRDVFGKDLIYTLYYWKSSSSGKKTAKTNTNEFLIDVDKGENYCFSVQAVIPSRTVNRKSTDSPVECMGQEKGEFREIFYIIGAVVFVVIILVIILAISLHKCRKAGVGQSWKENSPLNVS
Chain of lipidated TF, factor VIIa, factor X (P08709 61-212 partner limits assumed): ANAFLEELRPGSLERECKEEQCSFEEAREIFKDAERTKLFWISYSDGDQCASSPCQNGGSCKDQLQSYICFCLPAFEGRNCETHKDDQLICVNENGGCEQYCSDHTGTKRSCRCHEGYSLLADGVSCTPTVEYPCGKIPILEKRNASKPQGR
Chain of lipidated TF, factor VIIa, factor X (P08709 213-466 partner limits assumed): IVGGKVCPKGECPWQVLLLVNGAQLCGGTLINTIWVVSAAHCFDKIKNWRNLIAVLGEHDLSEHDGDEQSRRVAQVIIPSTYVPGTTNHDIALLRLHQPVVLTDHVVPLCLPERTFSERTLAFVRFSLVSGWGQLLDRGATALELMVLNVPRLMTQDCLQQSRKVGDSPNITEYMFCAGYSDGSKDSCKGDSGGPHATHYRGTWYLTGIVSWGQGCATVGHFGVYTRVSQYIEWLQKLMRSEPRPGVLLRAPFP

| Substance | Angle [1] [deg] | K [1] [min] | MA (maximal amplitude) [1] [mm] | R (time to clot formation) [1] [min] | SP [1] [min] | thrombus strength (maximal amplitude, MA), in words [1] | time to clot formation (R), in words [1] | bleeding time [2] | activation of factor X (factor Xa level) [3] | bleeding (blood loss) (rat) | bleeding time (rat; 150 μg/kg) | clot formation compared to peptide 16 ([1]; 5 μg/ml, repeated 3 times with different pooled blood, FIG. 1C) | bleeding time reduction, comparison between peptides ([2]; subcutaneous 150-375 μg/kg, FIG. 3D) | effect in reducing the bleeding, comparison between peptides (rat; 150 μg/kg, FIGS. 2A-2I (16C and 16A: I.V., FIGS. 2H-2I)) |
| --- | --- | --- | --- | --- | --- | --- | --- | --- | --- | --- | --- | --- | --- | --- |
| GSKRRKLRVYLHCT [Peptide 16, peptide comprising the procoagulant domain of heparanase, non-modified] | 63.3 | 2.8 | 50.4 | 6.4 | 5.2 | increased thrombus strength | significantly reduced the time to clot formation (R) | significant decrease in bleeding time | significantly increased activation of factor X compared to control | significant reduction | significant reduction | – | – | – |
| acetyl-GSKRRKLRVYLHCT-amid (Ac-GSKRRKLRVYLHCT-NH2) [Peptide 16AC, peptide 16 comprising a C-terminal amid group and an N-terminal acetyl group] | 63.1 | 2.5 | 53.8 | 5.6 | 4.7 | increased thrombus strength | significantly reduced the time to clot formation (R) | significant decrease in bleeding time | significantly increased activation of factor X compared to control | significant reduction | significant reduction | significant better effect to increase clot formation compared to peptide 16 | improved bleeding reduction | significantly better effect in reducing the bleeding compared to peptide 16 |
